Laboratory results as given in patent publication US20110230478A1 (Bayer ScienceCrop AG, priority 2008, published 2011).

assay: logP by HPLC on reversed-phase columns (C 18), EEC Directive 79/831 Annex V.A8; format: physicochemical; conditions: LC-MS, pH 2.7, 0.1% aqueous formic acid and acetonitrile

logP [b] | SMILES
1.39[b] | COCC(C)Nc1nc(Nc2ccc(OC)nc2)ncc1Cl (stereo not drawn) [II-2]

same assay, conditions: method marker [a]

logP | SMILES
2.77[a] | CC(=O)c1ccc(Nc2ncc(Cl)c(NC3CCCCC3)n2)cc1 [Example 266]

same assay, conditions: method marker [a]; footnote not given

logP | SMILES
1.79[a] | CC(=O)c1cccc(Nc2ncc(Cl)c(NC(C)C)n2)c1.Cl [Example 50]
1.78[a] | COCCNc1nc(Nc2ccc(OC(C)C)cc2)ncc1Cl [Example 12]
1.61[a] | CNc1nc(Nc2ccc(S(=O)(=O)N(C)C)cc2)ncc1Cl [Example 26]
2.45[a] | CC(C)N(C)c1nc(Nc2ccccc2)ncc1Cl.Cl [Example 46]
2.02[a] | CCC(CO)Nc1nc(Nc2ccc(N3CCN(C(=O)OC(C)(C)C)CC3)cc2)ncc1Cl (stereo not drawn) [Example 23]
2.38[a] | COCC(C)Nc1nc(Nc2ccc(C(C)C)cc2)ncc1Cl (stereo not drawn) [Example 9]
3.33[a] | CCC(C)N(C)c1nc(Nc2cccc(S(=O)(=O)N(C)C)c2)ncc1Cl (stereo not drawn) [Example 52]
2.17[a] | CC(C)(C)Nc1nc(Nc2ccccc2)ncc1Cl [Example 34]
2.5[a] | CC(=O)c1cccc(Nc2ncc(Cl)c(N(C)C(C)C)n2)c1.Cl [Example 45]
1.09[a] | COc1cc(Nc2ncc(Cl)c(NCCO)n2)cc(OC)c1OC.Cl [Example 55]
1.26[a] | COc1cc(Nc2ncc(Cl)c(NCCO)n2)cc(OC)c1.Cl [Example 54]
1.64[a] | CCC(CO)Nc1nc(Nc2cc(OC)cc(OC)c2)ncc1Cl (stereo not drawn) [Example 19]

same assay, conditions: method marker [b] (compound 257: pH2.7)

SMILES | logP
CC(=O)Cc1cccc(Nc2ncc(Cl)c(NC3CCCC3)n2)c1 [Example 255] | 2.01[b]
CC(C)Nc1nc(Nc2cccc(C=O)c2)ncc1Cl [Example 252] | 1.86[b]
CC(C)Nc1nc(Nc2ccc(C(=O)N(C)C)cc2)ncc1Br [Example 245] | 1.54[b]

Further lines, results first:

logP | SMILES
2.37[b] | CC(C)CCNc1nc(Nc2ccccc2)ncc1Cl [Example 277]
2.48[b] | CC(C)(C)CNc1nc(Nc2ccccc2)ncc1Cl [Example 273]
2.41[b] | CCCCCNc1nc(Nc2ccccc2)ncc1Cl [Example 278]
2.66[b] | CC(Nc1nc(Nc2ccccc2)ncc1Cl)[Si](C)(C)C (stereo not drawn) [Example 291]
1.32[b] | CNc1cccc(Nc2ncc(Cl)c(NC(C)C)n2)c1 [Example 292]
3.18[b] | CN(C)S(=O)(=O)c1ccc(Nc2ncc(Cl)c(NC3CCCCC3)n2)cc1 [Example 263]
3.81[b] | Clc1cccc(Nc2ncc(Cl)c(NC3CCCCC3)n2)c1 [Example 258]
1.64[b] | C=CCNc1nc(Nc2ccccc2)ncc1Cl [Example 286]
1.69[b] | CCCNc1nc(Nc2ccccc2)ncc1Cl [Example 280]
2.93[b] | CSc1cccc(Nc2ncc(Cl)c(NC3CCCC3)n2)c1 [Example 256]
2.17[b] | CC(C)=CCNc1nc(Nc2ccccc2)ncc1Cl [Example 289]
2.69[b] | CSc1cccc(Nc2ncc(Cl)c(NCC(C)C)n2)c1 [Example 283]

same assay, conditions: method marker [b]; footnote not given; compound 68 value matches logP (pH 2.3)

logP | SMILES
2.11[b] | COCC(C)Nc1nc(Nc2cccc(C#N)c2)ncc1Cl (stereo not drawn) [Example 83]
1.99[b] | COCC(C)Nc1nc(Nc2ccc(-c3cscn3)cc2)ncc1Br (stereo not drawn) [Example 112]
2.23[b] | COCC(C)Nc1nc(Nc2ccc(Cl)c(S(C)(=O)=O)c2)ncc1Br (stereo not drawn) [Example 76]
3.14[b] | COCC(C)Nc1nc(Nc2ccc(C(=O)OC)c(Cl)c2)ncc1Br (stereo not drawn) [Example 115]
1.55[b] | COCC(C)Nc1nc(Nc2ccc3c(c2)CCN3C(C)=O)ncc1Br (stereo not drawn) [Example 79]
2.16[b] | COCC(C)Nc1nc(Nc2ccc(F)cc2F)ncc1Br (stereo not drawn) [Example 73]
2.04[b] | CCOc1cccc(Nc2ncc(Cl)c(NC(C)COC)n2)c1 (stereo not drawn) [Example 96]
2.09[b] | COCC(C)Nc1nc(Nc2ccc(C(=O)CC#N)cc2)ncc1Cl (stereo not drawn) [Example 102]
2.37[b] | COCC(C)Nc1nc(Nc2cccc(S(=O)(=O)N(C)C)c2)ncc1Br (stereo not drawn) [Example 72]
1.87[b] | COCC(C)Nc1nc(Nc2cccc(CC(=O)OC)c2)ncc1Br (stereo not drawn) [Example 113]
1.78[b] | COCC(C)Nc1nc(Nc2cccc(OC)c2)ncc1Cl (stereo not drawn) [Example 85]
2.57[b] | CCC(=O)c1ccc(Nc2ncc(Br)c(NC(C)COC)n2)cc1 (stereo not drawn) [Example 78]

same assay, conditions: method marker [c]

SMILES | logP
CC(C)Nc1nc(Nc2cccc(C=O)c2)ncc1Cl [Example 252] | 3.06[c];
C=CCNc1nc(Nc2ccccc2)ncc1Cl [Example 286] | 3.1[c];

same assay, conditions: pH 2.3, 0.1% aqueous phosphoric acid and acetonitrile; read-out: logP [a]

SMILES | chromatographic logP
CCCCN(C)c1nc(Cl)ncc1Cl [Example V-28] | 3.89

same assay, conditions: pH 2.3, logP [a]

SMILES | chromatographic logP
C=CCNc1nc(Cl)ncc1Cl [Example V-13, 2,5-dichloro-N-(prop-2-en-1-yl)pyrimidine-4-amine] | 2.12

same assay, conditions: reversed-phase HPLC column (C 18), pH 2.3, pH 2.3, 0.1% aqueous phosphoric acid and acetonitrile; read-out: logP [a]

chromatographic logP | SMILES
1.65 | COCCNc1nc(Cl)ncc1Cl [Example V-3, 2,5-dichloro-N-(2-methoxyethyl)pyrimidine-4-amine]
2.73 | CSCC(C)Nc1nc(Cl)ncc1Cl (stereo not drawn) [Example V-6, 2,5-dichloro-N-[1-(methylsulphanyl)propan-2-yl]pyrimidine-4-amine]
2.35 | CC(C)N(C)S(=O)(=O)Cc1cccc([N+](=O)[O-])c1 [IV-2, N-methyl-N-(propan-2-yl)-1-(3-nitrophenyl)methanesulphonamide]
2.91 | CCCCNc1nc(Cl)ncc1Cl [Example V-16, N-(butan-1-yl)-2,5-dichloropyrimidine-4-amine]
0.97 | OCCNc1nc(Cl)ncc1Cl [Example V-5, 2,5-dichloro-N-(2-hydroxyethyl)pyrimidine-4-amine]
0.63 | CCC(=O)N(C)c1cccc(N)c1 [IV-9, N-(3-aminophenyl)-N-methylpropanamide]
3.45 | CC(C)CCNc1nc(Cl)ncc1Cl [Example V-22, 2,5-dichloro-N-(3-methylbutyl)pyrimidine-4-amine]
4.87 | CC(C)c1cccc(Nc2ncc(C(F)(F)F)c(Cl)n2)c1 [VIII-4, 4-Chloro-N-[3-(propan-2-yl)phenyl]-5-(trifluoromethyl)pyrimidine-2-amine]
2.02 | COCCN(C)c1nc(Nc2ccccc2)ncc1Cl [Example 222, 5-Chloro-N^4-(2-methoxyethyl)-N^4-methyl-N^2-phenylpyrimidine-2,4-diamine]

same assay, conditions: reversed-phase HPLC column (C 18), pH 2.3, values marked [a]; pH 2.3; read-out: logP

chromatographic logP | SMILES
2.02 | COCCN(C)c1nc(Nc2ccccc2)ncc1Cl [Example 222, 5-Chloro-N^4-(2-methoxyethyl)-N^4-methyl-N^2-phenylpyrimidine-2,4-diamine]

same assay, conditions: values marked [a]; pH 2.3

logP | SMILES
2.68[a]; | CSCC(C)(C)Nc1nc(Nc2ccccc2)ncc1Cl [Example 174]
2.88[a] | CCC(C)N(C)c1nc(Nc2cccc(C(C)=O)c2)ncc1Cl (stereo not drawn) [Example 179]
2.27[a] | CSc1cccc(Nc2ncc(Cl)c(NCC#N)n2)c1 [Example 221]

same assay, conditions: values marked [b]; footnote not given

SMILES | logP
COCC(C)Nc1nc(Nc2ccc(N(C)C(=O)C(C)(C)C)cc2)ncc1Cl (stereo not drawn) [Example 163] | 1.87[b]
CNC(=O)c1cccc(Nc2ncc(Cl)c(NC(C)COC)n2)c1 (racemic) [Example 142] | 1.32[b]
C=CCNC(=O)c1ccc(Nc2ncc(Br)c(NC(C)COC)n2)cc1 (racemic) [Example 128] | 1.75[b]
COCC(C)Nc1nc(Nc2cccc(NC=O)c2)ncc1Br (racemic) [Example 132] | 1.43[b]
COCC(C)Nc1nc(Nc2ccc(O)c(C(C)=O)c2)ncc1Cl (stereo not drawn) [Example 159] | 1.68[b]
Cc1cccc(Nc2ncc(Cl)c(NC(C)C)n2)c1 [Example 229] | 2[b]
COCC(C)Nc1nc(Nc2cccc(NC(=O)OC)c2)ncc1Cl (stereo not drawn) [Example 153] | 1.59[b]
CCOC(=O)Nc1cccc(Nc2ncc(Cl)c(NC(C)COC)n2)c1 (racemic) [Example 143] | 1.78[b]

The remaining lines, values ahead:

logP | SMILES
1.61[b] | CC(=O)N1CCc2ccc(Nc3ncc(Cl)c(NC(C)C)n3)cc21 [Example 206]
1.78[b] | CC(C)Nc1nc(Nc2cccc(NC(=O)C3(C)CC3)c2)ncc1Cl [Example 207]
2.26[b] | FC(F)(F)OCCNc1nc(Nc2ccccc2)ncc1Cl [Example 177]
1.44[b] | CC(C)Nc1nc(Nc2ccc3[nH]c(=O)oc3c2)ncc1Cl [Example 205]
2.8[b] | COCC(C)Nc1nc(Nc2ccc(SC(F)F)cc2)ncc1Cl (stereo not drawn) [Example 172]
1.68[b] | COCC(C)Nc1nc(Nc2cccc(NC(=O)c3ccco3)c2)ncc1Cl (stereo not drawn) [Example 168]
1.96[b] | CCN(C)S(=O)(=O)Cc1cccc(Nc2ncc(Cl)c(NC(C)C)n2)c1 [Example 243]
2.91[b] | CSc1ccc(Nc2ncc(Cl)c(NC(C)C)n2)cc1Cl [Example 187]
2.23[b] | COCC(C)Nc1nc(Nc2cccc(NC(=O)Oc3ccccc3)c2)ncc1Cl (stereo not drawn) [Example 165]
1.92[b] | CCNc1nc(Nc2cccc(SC)c2)ncc1Cl [Example 238]
2.21[b] | CC(C)Nc1nc(Nc2cccc(C#N)c2)ncc1Cl [Example 180]
1.66[b] | C=C(C)C(=O)Nc1cccc(Nc2ncc(Cl)c(NC(C)C)n2)c1 [Example 196]
1.66[b] | CCOC(=O)Nc1ccc(Nc2ncc(Cl)c(NC(C)C)n2)cc1 [Example 202]
1.86[b] | CN(C)c1nc(Nc2ccccc2)ncc1Br [Example 178]
2.88[b] | CC(C)Nc1nc(Nc2cccc(OC(F)(F)C(F)F)c2)ncc1Cl [Example 211]
1.61[b] | CC(C)Nc1nc(Nc2ccc(NC(=O)C(C)C)cc2)ncc1Cl [Example 209]
2.33[b] | COCC(Nc1nc(Nc2ccccc2)ncc1Cl)C(C)C (stereo not drawn) [Example 176]
2.46[b] | CC(C)Nc1nc(Nc2ccc(C#N)cc2)ncc1Cl [Example 184]
1.51[b] | CC(=O)N(C)c1ccc(Nc2ncc(Cl)c(NC(C)C)n2)cc1 [Example 192]

same assay, conditions: values marked [c]; footnote not given

SMILES | logP
Cc1cccc(Nc2ncc(Cl)c(NC(C)C)n2)c1 [Example 229] | 3.84[c];
CC(C)Nc1nc(Nc2cccc(CC#N)c2)ncc1Cl [Example 236] | 1.69[c]

The next lines start with the values.

logP | SMILES
4.18[c] | CSCC(C)(C)Nc1nc(Nc2ccccc2)ncc1Cl [Example 174]
3.18[c]; | CCN(C)S(=O)(=O)Cc1cccc(Nc2ncc(Cl)c(NC(C)C)n2)c1 [Example 243]
3.46[c]; | CCNc1nc(Nc2cccc(SC)c2)ncc1Cl [Example 238]
